Reference: patent US9409866B2, “Pyridine-2-amides useful as CB2 agonists” (Hoffmann-La Roche Inc., priority 2012, dated 2016)
pEC50: −log10 of the molar value. Like-named read-outs stand apart in the source and are kept apart here.

Experiments:
[1] = target: human CB1 receptors (Homo sapiens (Human), UniProt P21554); experiment: functional cAMP assay, CHO cells expressing human CB1; format: cell-based; conditions: functional cAMP assay, CHO cells expressing human CB1; for pEC50: read-out: Human CB1 EC50
human CB1 receptors, sequence (P21554 whole entry): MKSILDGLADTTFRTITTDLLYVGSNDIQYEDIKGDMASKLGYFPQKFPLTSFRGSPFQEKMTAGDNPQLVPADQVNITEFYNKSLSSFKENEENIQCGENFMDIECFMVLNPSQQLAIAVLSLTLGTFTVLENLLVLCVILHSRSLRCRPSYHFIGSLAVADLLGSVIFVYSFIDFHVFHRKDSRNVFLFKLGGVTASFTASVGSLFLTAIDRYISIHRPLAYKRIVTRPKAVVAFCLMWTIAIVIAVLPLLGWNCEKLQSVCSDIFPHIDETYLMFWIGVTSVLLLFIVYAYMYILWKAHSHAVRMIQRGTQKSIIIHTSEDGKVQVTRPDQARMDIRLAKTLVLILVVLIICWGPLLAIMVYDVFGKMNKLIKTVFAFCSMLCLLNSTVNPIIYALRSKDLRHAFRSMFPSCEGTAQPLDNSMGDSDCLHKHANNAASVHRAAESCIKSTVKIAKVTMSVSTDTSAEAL
In short: (§1)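 Agonist EC50 values came from cAMP levels in CHO cells carrying human CB1 or CB2, after 30 min of compound treatment at 30 °C in the presence of 1 mM IBMX. Detection used a time-resolved FRET cAMP kit read against a cAMP standard curve.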

[2] = target: human CB2 receptors (Homo sapiens (Human), UniProt P34972); experiment: functional cAMP assay, CHO cells expressing human CB2; format: cell-based; conditions: for pEC50: read-out: Human CB2 EC50
human CB2 receptors, sequence (P34972 whole entry): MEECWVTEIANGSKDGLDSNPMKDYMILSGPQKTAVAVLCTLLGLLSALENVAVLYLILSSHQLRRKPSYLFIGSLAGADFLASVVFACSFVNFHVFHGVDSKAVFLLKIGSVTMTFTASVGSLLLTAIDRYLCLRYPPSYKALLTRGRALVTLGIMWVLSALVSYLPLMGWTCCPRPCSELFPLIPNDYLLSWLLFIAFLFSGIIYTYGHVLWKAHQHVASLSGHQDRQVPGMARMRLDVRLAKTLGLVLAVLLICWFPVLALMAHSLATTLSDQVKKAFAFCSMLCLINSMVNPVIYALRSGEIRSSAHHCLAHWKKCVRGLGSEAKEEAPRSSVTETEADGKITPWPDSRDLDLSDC
In short: as §1

Row | Compound | pEC50 [1] | pEC50 [2] | EC50 ([1]; Human CB1 EC50 (uM)) [µM] | EC50 ([2]; Human CB2 EC50 (uM)) [µM]
1 | Cc1nnc(C(C)(CC2COC2)NC(=O)c2cc(OCC(F)(F)F)c(C3CC3)cn2)o1 (centres unmarked) [Example 191, 5-cyclopropyl-N-[2-(5-methyl-1,3,4-oxadiazol-2-yl)-1-(oxetan-3-yl)propan-2-yl]-4-(2,2,2-trifluoroethoxy)pyridine-2-carboxamide] | < 5.00 | 6.15 | – | –
2 | CC(C)(C)C(NC(=O)c1cc(OCC(F)(F)F)c(C2CC2)cn1)c1noc(N)n1 (centres unmarked) [Example 192, N-[1-(5-amino-1,2,4-oxadiazol-3-yl)-2,2-dimethylpropyl]-5-cyclopropyl-4-(2,2,2-trifluoroethoxy)pyridine-2-carboxamide] | < 5.00 | 8.36 | – | –
3 | NC(=O)CC(NC(=O)c1cc(OCC(F)(F)F)c(C2CC2)cn1)C1CC1 (centres unmarked) [Example 193, N-(3-amino-1-cyclopropyl-3-oxopropyl)-5-cyclopropyl-4-(2,2,2-trifluoroethoxy)pyridine-2-carboxamide] | < 5.00 | 6.95 | – | –
4 | CC(C)(C)C(NC(=O)c1cc(OCC(F)(F)F)c(C2CC2)cn1)C(N)=O (centres unmarked) [Example 194, N-(1-amino-3,3-dimethyl-1-oxobutan-2-yl)-5-cyclopropyl-4-(2,2,2-trifluoroethoxy)pyridine-2-carboxamide] | < 5.00 | 7.82 | – | –
5 | CN(C)C(=O)C(NC(=O)c1cc(OCC(F)(F)F)c(C2CC2)cn1)C(C)(C)C (centres unmarked) [Example 195, 5-cyclopropyl-N-[1-(dimethylamino)-3,3-dimethyl-1-oxobutan-2-yl]-4-(2,2,2-trifluoroethoxy)pyridine-2-carboxamide] | < 5.00 | 8.47 | – | –
6 | CC(C)(C)C(NC(=O)c1cc(OCC(F)(F)F)c(C2CC2)cn1)C(=O)N1CCC1 (centres unmarked) [Example 196, N-[1-(azetidin-1-yl)-3,3-dimethyl-1-oxobutan-2-yl]-5-cyclopropyl-4-(2,2,2-trifluoroethoxy)pyridine-2-carboxamide] | < 5.00 | 8.92 | – | –
7 | CC(C)(C)C(NC(=O)c1cc(OCC(F)(F)F)c(C2CC2)cn1)C(=O)N1CC(F)(F)C1 (centres unmarked) [Example 197, 5-cyclopropyl-N-[1-(3,3-difluoroazetidin-1-yl)-3,3-dimethyl-1-oxobutan-2-yl]-4-(2,2,2-trifluoroethoxy)pyridine-2-carboxamide] | < 5.00 | 8.12 | – | –
8 | CC(C)(C)C(NC(=O)c1cc(OCC(F)(F)F)c(C2CC2)cn1)C(=O)N1CCC12COC2 (centres unmarked) [Example 198, 5-cyclopropyl-N-[3,3-dimethyl-1-(6-oxa-1-azaspiro[3.3]heptan-1-yl)-1-oxobutan-2-yl]-4-(2,2,2-trifluoroethoxy)pyridine-2-carboxamide] | < 5.00 | 7.44 | – | –
9 | C[C@H](Oc1cc(C(=O)NC(C(N)=O)C(C)(C)C)ncc1C1CC1)C(F)(F)F (stereo partly drawn) [Example 199, N-(1-amino-3,3-dimethyl-1-oxobutan-2-yl)-5-cyclopropyl-4-[(2S)-1,1,1-trifluoropropan-2-yl]oxypyridine-2-carboxamide] | < 5.00 | 8.11 | – | –
10 | CNC(=O)C(NC(=O)c1cc(O[C@@H](C)C(F)(F)F)c(C2CC2)cn1)C(C)(C)C (stereo partly drawn) [Example 200, 5-cyclopropyl-N-[3,3-dimethyl-1-(methylamino)-1-oxobutan-2-yl]-4-[(2S)-1,1,1-trifluoropropan-2-yl]oxypyridine-2-carboxamide] | < 5.00 | 8.59 | – | –
11 | C[C@H](Oc1cc(C(=O)NC(C(=O)N(C)C)C(C)(C)C)ncc1C1CC1)C(F)(F)F (stereo partly drawn) [Example 201, 5-cyclopropyl-N-[1-(dimethylamino)-3,3-dimethyl-1-oxobutan-2-yl]-4-[(2S)-1,1,1-trifluoropropan-2-yl]oxypyridine-2-carboxamide] | < 5.00 | 8.62 | – | –
12 | C[C@H](Oc1cc(C(=O)NC(C(=O)N2CCC2)C(C)(C)C)ncc1C1CC1)C(F)(F)F (stereo partly drawn) [Example 202, N-[1-(azetidin-1-yl)-3,3-dimethyl-1-oxobutan-2-yl]-5-cyclopropyl-4-[(2S)-1,1,1-trifluoropropan-2-yl]oxypyridine-2-carboxamide] | < 5.00 | 8.66 | – | –
13 | C[C@H](Oc1cc(C(=O)NC(C(=O)N2CC(F)(F)C2)C(C)(C)C)ncc1C1CC1)C(F)(F)F (stereo partly drawn) [Example 203, 5-cyclopropyl-N-[1-(3,3-difluoroazetidin-1-yl)-3,3-dimethyl-1-oxobutan-2-yl]-4-[(2S)-1,1,1-trifluoropropan-2-yl]oxypyridine-2-carboxamide] | < 5.00 | 8.29 | – | –
14 | C[C@H](Oc1cc(C(=O)NC(C(=O)N2CCC23COC3)C(C)(C)C)ncc1C1CC1)C(F)(F)F (stereo partly drawn) [Example 204, 5-cyclopropyl-N-[3,3-dimethyl-1-(6-oxa-1-azaspiro[3.3]heptan-1-yl)-1-oxobutan-2-yl]-4-[(2S)-1,1,1-trifluoropropan-2-yl]oxypyridine-2-carboxamide] | < 5.00 | 7.19 | – | –
15 | C[C@H](Oc1cc(C(=O)NC(c2noc(N)n2)C(C)(C)C)ncc1C1CC1)C(F)(F)F (stereo partly drawn) [Example 213, N-[1-(5-amino-1,2,4-oxadiazol-3-yl)-2,2-dimethylpropyl]-5-cyclopropyl-4-[(2S)-1,1,1-trifluoropropan-2-yl]oxypyridine-2-carboxamide] | < 5.00 | 7.95 | – | –
16 | Cc1nc(C(NC(=O)c2cc(O[C@@H](C)C(F)(F)F)c(C3CC3)cn2)C(C)(C)C)no1 (stereo partly drawn) [Example 214, 5-cyclopropyl-N-[2,2-dimethyl-1-(5-methyl-1,2,4-oxadiazol-3-yl)propyl]-4-[(2S)-1,1,1-trifluoropropan-2-yl]oxypyridine-2-carboxamide] | < 5.00 | 8.10 | – | –
17 | CC1(COc2cc(C(=O)NC(C)(C)c3nnc(-c4ccccc4)o3)ncc2C2CC2)COC1 [Example 215, 5-cyclopropyl-4-[(3-methyloxetan-3-yl)methoxy]-N-[2-(5-phenyl-1,3,4-oxadiazol-2-yl)propan-2-yl]pyridine-2-carboxamide] | – | – | > 10 | 0.0309
18 | C[C@H](Oc1cc(C(=O)NC(c2nnn(C)n2)C(C)(C)C)ncc1C1CC1)C(F)(F)F (stereo partly drawn) [Example 216, 5-cyclopropyl-N-[2,2-dimethyl-1-(2-methyltetrazol-5-yl)propyl]-4-[(2S)-1,1,1-trifluoropropan-2-yl]oxypyridine-2-carboxamide] | < 5.00 | 8.33 | – | –
19 | C[C@H](Oc1cc(C(=O)NC(c2noc(N)n2)C(C)(C)C)ncc1C1CC1)C(F)(F)F (stereo partly drawn) [Example 218, N-[1-(5-amino-1,2,4-oxadiazol-3-yl)-2,2-dimethylpropyl]-5-cyclopropyl-4-[(2S)-1,1,1-trifluoropropan-2-yl]oxypyridine-2-carboxamide] | < 5.00 | 8.17 | – | –
20 | C[C@H](Oc1cc(C(=O)NC(c2noc(N)n2)C(C)(C)C)ncc1C1CC1)C(F)(F)F (stereo partly drawn) [Example 219, N-[1-(5-amino-1,2,4-oxadiazol-3-yl)-2,2-dimethylpropyl]-5-cyclopropyl-4-[(2S)-1,1,1-trifluoropropan-2-yl]oxypyridine-2-carboxamide] | < 5.00 | 9.00 | – | –
21 | Cc1nc(C(NC(=O)c2cc(O[C@@H](C)C(F)(F)F)c(C3CC3)cn2)C(C)(C)C)no1 (stereo partly drawn) [Example 220, 5-cyclopropyl-N-[2,2-dimethyl-1-(5-methyl-1,2,4-oxadiazol-3-yl)propyl]-4-[(2S)-1,1,1-trifluoropropan-2-yl]oxypyridine-2-carboxamide] | < 5.00 | 8.57 | – | –
22 | Cc1nc(C(NC(=O)c2cc(O[C@@H](C)C(F)(F)F)c(C3CC3)cn2)C(C)(C)C)no1 (stereo partly drawn) [Example 221, 5-cyclopropyl-N-[2,2-dimethyl-1-(5-methyl-1,2,4-oxadiazol-3-yl)propyl]-4-[(2S)-1,1,1-trifluoropropan-2-yl]oxypyridine-2-carboxamide] | < 5.00 | 8.08 | – | –
23 | NC(=O)CC1(NC(=O)c2cc(OCC3CC3)c(N3CC(F)(F)C3)cn2)COC1 [Example 222, N-[3-(2-amino-2-oxoethyl)oxetan-3-yl]-4-(cyclopropylmethoxy)-5-(3,3-difluoroazetidin-1-yl)pyridine-2-carboxamide] | < 5.00 | 7.33 | – | –
24 | NC(=O)CC1(NC(=O)c2cc(OCC(F)(F)F)c(N3CC(F)(F)C3)cn2)COC1 [Example 223, N-[3-(2-amino-2-oxoethyl)oxetan-3-yl]-5-(3,3-difluoroazetidin-1-yl)-4-(2,2,2-trifluoroethoxy)pyridine-2-carboxamide] | < 5.00 | 6.78 | – | –
25 | CNC(=O)CC(C)(NC(=O)c1cc(OCC(F)(F)F)c(C2CC2)cn1)C1CC1 (centres unmarked) [Example 229, 5-cyclopropyl-N-[2-cyclopropyl-4-(methylamino)-4-oxobutan-2-yl]-4-(2,2,2-trifluoroethoxy)pyridine-2-carboxamide] | < 5.00 | 7.94 | – | –
26 | CC(CC(N)=O)(NC(=O)c1cc(OCC(F)(F)F)c(C2CC2)cn1)C1CC1 (centres unmarked) [Example 230, N-(4-amino-2-cyclopropyl-4-oxobutan-2-yl)-5-cyclopropyl-4-(2,2,2-trifluoroethoxy)pyridine-2-carboxamide] | < 5.00 | 9.05 | – | –
27 | CNC(=O)CC1(NC(=O)c2cc(OCC(F)(F)F)c(C3CC3)cn2)COC1 [Example 231, 5-cyclopropyl-N-[3-[2-(methylamino)-2-oxoethyl]oxetan-3-yl]-4-(2,2,2-trifluoroethoxy)pyridine-2-carboxamide] | < 5.00 | 6.26 | – | –
28 | CNC(=O)CC1(NC(=O)c2cc(O[C@@H](C)C(F)(F)F)c(C3CC3)cn2)COC1 [Example 232, 5-cyclopropyl-N-[3-[2-(methylamino)-2-oxoethyl]oxetan-3-yl]-4-[(2S)-1,1,1-trifluoropropan-2-yl]oxypyridine-2-carboxamide] | < 5.00 | 6.93 | – | –
